Test results published in patent US8492440B2, “Difluorophenyldiacylhydrazide derivatives” (Merck Patent GmbH, priority 2008, dated 2013).

Tests used:
SGK1 [1] = molecular target: T1, SGK1 (Homo sapiens, UniProt O00141); assay: Cell assay: P-NDRG1 level in HeLa cells (western blot), intracellular SGK1 inhibition; format: cell-based; parameters: endogenous in cells; host or cells: HeLa; conditions: decrease of NDRG1 phosphorylation, 24 hrs incubation
T1 sequence (O00141 1-431): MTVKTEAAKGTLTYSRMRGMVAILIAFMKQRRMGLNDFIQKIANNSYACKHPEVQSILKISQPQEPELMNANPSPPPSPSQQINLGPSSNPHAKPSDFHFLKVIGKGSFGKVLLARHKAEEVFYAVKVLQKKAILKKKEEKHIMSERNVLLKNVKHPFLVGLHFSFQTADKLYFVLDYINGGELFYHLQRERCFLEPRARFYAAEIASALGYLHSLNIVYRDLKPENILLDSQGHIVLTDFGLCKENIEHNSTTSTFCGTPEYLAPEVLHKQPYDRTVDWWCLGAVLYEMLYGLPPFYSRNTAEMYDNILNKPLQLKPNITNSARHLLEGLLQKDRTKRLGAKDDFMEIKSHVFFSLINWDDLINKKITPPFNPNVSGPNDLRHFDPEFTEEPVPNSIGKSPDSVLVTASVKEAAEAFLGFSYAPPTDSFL
Protocol: HeLa cells are plated out with a density of 10−20×10^3 cells/cm^2 in 6-well MTPs (Costar Corning, #3506) in DMEM medium, supplemented with 10% foetal calf serum (FCS), 2 mM glutamine and 1 mM sodium pyruvate. After 24 hrs. at 37° C. and with 5% CO2 in a cell incubator, each well is furthermore supplemented with 25 μl of a 100× DMSO solution of the compound; this solution is diluted 100-fold in the supernatant of the cell culture, which results in the expected SGK1 inhibitor concentration at a 1% DMSO concentration. The cells are incubated under the same conditions for a further 24 hrs.
The supernatants are subsequently removed (by suction), and the cells are washed once with 1 ml/well of ice-cold phosphate-buffered saline solution (PBS). 250 μl of the ice-cold lysis buffer (50 mM tris/HCl, 1 mM EDTA, 1 mM EGTA, 0.5 mM activated Na3VO4, 10 mM glycerophosphate, 50 mM NaF, 5 mM Na pyrophosphate, 1% Triton X100, 1 mM DTT, 0.1 mM PMSF and 1 μM microcystine and in each case 1 μg/ml of aprotinin, pepstatin or leupeptin) are added to each well. The cells are scraped down from the base of the well, and the cell suspension is sucked up several times with an Eppendorf pipette; the cells are thereby lysed and homogenised. […] The binding of the primary antibody was determined using antisheep IG antibody conjugated to […] peroxidase (1:5000 dilution, Calbiochem), followed by amplified chemiluminescence (SuperSignal West Dura Extended Duration, Pierce). […] The NDRG1 levels are determined after stripping of the nitrocellulose membranes using Restore™ western blot stripping buffer and the Pierce method.
On use of the P-NDRG1 antiserum, a decrease in the phosphorylation level of the NDRG1 protein can easily be detected. The decrease in the intensity of the bands in the western blot on use of the P-NDRG1 antiserum is determined, plotted against the cell culture medium concentration of the SGK1 inhibitor in a semi-logarithmic diagram and used for assessment of the intracellular inhibitor efficacy ([…]) of the SGK1 inhibitor. […]

SGK1 [2] = molecular target: T1, SGK1; assay: SGK1 protein kinase inhibition (enzyme), filter binding method; format: biochemical
From the text: Other assays are known from the literature and could readily be performed by the person skilled in the art (see, for example, Dhanabal et al., Cancer Res. 59:189-197; Xin et al., J. Biol. Chem. 274:9116-9121; Sheu et al., Anticancer Res. 18:4435-4441; Ausprunk et al., Dev. Biol. 38:237-248; Gimbrone et al., J. Natl. Cancer Inst. 52:413-427; Nicosia et al., In Vitro 18:538-549). The inhibition of SGK1 protein kinase can be determined in the filter binding method.

IC50 (SGK1 [1]) [nM] | melting point [°C] | IC50 (SGK1 [2]) [nM] | Compound
< 500 | 217 | < 10 | CCc1c(C(=O)NNC(=O)Cc2cc(F)c(F)c(OC)c2)ccc(O)c1C [Compound 1, N′-[2-(3,4-difluoro-5-methoxyphenyl)acetyl]-2-ethyl-4-hydroxy-3-methyl-benzohydrazide]
> 500 | 220.7 | > 10 | CCc1c(C(=O)NNC(=O)Cc2cc(F)c(F)cc2OC)ccc(O)c1C [Compound 2, N′-[2-(3,4-Difluoro-6-methoxyphenyl)acetyl]-2-ethyl-4-hydroxy-3-methyl-benzohydrazide]
> 500 | – | > 10 | CCc1c(C(=O)NNC(=O)Cc2ccc(F)c(F)c2)ccc(O)c1C [Compound 3, N′-[2-(3,4-Difluorophenyl)acetyl]-2-ethyl-4-hydroxy-3-methylbenzohydrazide]
